Data: patent publication US11891371B2, “Piperonylic acid derivative and preparation and application thereof” (SHENYANG SINOCHEM AGROCHEMICALS R&D CO., LTD., priority 2017, dated 2024)
Like-named read-outs stand apart in the source and are kept apart here.

Experiments:
adult spider mite = test: Determination of acaricidal activity against adult spider mite (bean leaf spray, 72 h mortality); type: in vivo; conditions: after 72 hours
Method: According to the solubility of test compounds, the compounds are dissolved in acetone or dimethyl sulfoxide, and then diluted with 0.1% aqueous solution of Tween 80 to form a required concentration of 50 ml test liquid. The content of the acetone or the dimethyl sulfoxide in the total solution is not more than 10%.
The adult spider mites were put into two true leaves of bean plants. After the number of mites was investigated, the solution of certain concentrations of test compounds was sprayed by using a handheld Airbrush. Three replicates were set for each treatment. Then the leaves were maintained in a standard observation room. After 72 hours, the number of surviving mites was observed, and the mortality rate was calculated.

armyworm = test: Determination of activity against armyworm (corn leaf dip, third instar, 72 h mortality); type: in vivo; conditions: foliar; for mortality at 0.1 µg/mL: read-out: Mortality rate (%) 0.1 mg/L
Method: (§1) According to the solubility of test compounds, the compounds are dissolved in acetone or dimethyl sulfoxide, and then diluted with 0.1% aqueous solution of Tween 80 to form a required concentration of 50 ml test liquid, The content of the acetone or the dimethyl sulfoxide in the total solution is not more than 10%.
The middle leaves of fresh corns were cut into small sections of 3 cm, and dipped into a solution of the required concentration of test compounds for 10 seconds. After dried in shade, the middle leaves were placed in a 9 cm diameter petri dish provided with filter paper. Fourteen regular healthy test insects (third instar) were put into the leaves. Four replicates were set for each treatment. The pure water treatment was set as control check. The treated discs were placed in a chamber of is 24° C., 60%-70% relative humidity and day light. After 72 hours, the number of surviving insects was investigated, and the mortality rate was calculated.

diamondback moth = test: Determination of activity against diamondback moth (cabbage leaf disc dip, second instar, 72 h mortality); type: in vivo; conditions: Plutella xylostella, foliar, 1 mg/L, read-out: mortality rates against diamondback moth
Method: as §1
The leaves of cabbage grown in greenhouse were selected, removed the surface waxy layers, punched into circular leaf discs with a diameter of 2 cm by using a puncher, and dipped into a solution of the required concentration of test compounds for 10 seconds. After dried in shade, the circular leaf discs were placed in a 9 cm diameter petri dish provided with filter paper. Ten regular healthy test insects (second instar) were put into the leaf discs. Four replicates were set for each treatment. The pure water treatment was set as control check. The treated discs were placed in a chamber of 24° C., 60%-70% relative humidity and day light. After 72 hours, the number of surviving insects was investigated, and the mortality rate was calculated.

beet armyworm = test: Determination of activity against beet armyworm (cabbage leaf disc spray, third instar, 96 h mortality); type: in vivo; conditions: after 96 hours
Method: as §1
The cabbage leaves were punched into circular leaf discs with a diameter of 1 cm by using a puncher. A certain concentration of test compound was sprayed on both sides of each leaf disc at a spray volume of 0.5 ml by a handheld Airbrush. After the leaf discs were dried in shade, 12 test insects (third instar) were put into the leaf discs. Three replicates were set for each treatment. The pure water treatment was set as control check. The treated discs were placed in a chamber of 24° C., 60%-70% relative humidity and day light. After 96 hours, the number of surviving insects was investigated, and the mortality rate was calculated. See Table 2 for parallel determination results of activity of compounds 1-8 and KC2 (compound 3-1 in U.S. Pat. No. 8,853,440B2) against beet armyworm.

green peach aphid = test: Determination of activity against green peach aphid (cabbage leaf spray, 48 h mortality); type: in vivo; conditions: Myzus persicae, 10 mg/L, read-out: mortality rates against green peach aphid
Method: as §1
A layer of filter paper was covered on the bottom of the 6 cm diameter petri dish. To the petri dish, a proper amount of tap water was added dropwise for moisture retention. Cabbage leaves, on which 15-30 aphids exist, with a suitable size (about 3 cm in diameter) were cut from the cabbage plants breeding peach aphids. After winged aphids and the aphids on the front surface of the leaves were removed, the leaves were placed in the petri dish in a manner of backing on to the petri dish, and sprayed with a handheld Airbrush, with a pressure of 10 psi (about 0.7 kg/cm^2) and a spray volume of 0.5 ml, Three replicates were set for each treatment. After treatment, the cabbage leaves were placed in a standard observation room. After 48 hours, the number of surviving aphids was investigated, and the mortality rate was calculated.

rice leaf folder = test: Determination of activity against rice leaf folder in field trial (foliar spray, 15 days mortality); type: in vivo; conditions: after 15 days
Method: A certain concentration of test compounds was sprayed on the leaf surfaces in the peak of the hatching period of the rice leaf folders, with a spray volume of 450 L per hectare. The area of a rice plot was 32 square meters. Three replicates were set for each treatment. After 15 days, the number of surviving rice leaf folders was investigated, and the mortality rate was calculated. See Table 3 for parallel determination results of activity of compounds I-8 and KC2 against rice leaf folder.

housefly larva = test: Determination of activity against housefly larva (feed poisoning method, third instar, 72 h mortality); type: in vivo; conditions: after 72 hours
Method: Third instar housefly larvae were tested by a feed poisoning method. 1000 mg/L, of acetone solution of the test compounds was diluted into a required concentration of test liquid by using a certain concentration of milk powder emulsion according to a test design dose. The test liquid was uniformly added to a 6 cm diameter petri dish provided with filter paper by using a pipette, with 1 ml per dish. The third instar housefly larvae were put into the petri dish. Three replicates were set for each treatment. Then the petri dishes were maintained in a standard observation room. After 72 hours, the number of surviving housefly larvae was investigated, and the mortality rate was calculated. See Table 5 for parallel determination results of activity of compounds I-51 and KC2 against housefly larva.

Spodoptera litura = conditions: 100 ppm; disclosed in WO2005073165A1, US2007275980A1, US20140206727A1; cited from earlier work
Plutella xylostella = conditions: 100 ppm; disclosed in WO2005073165A1, US2007275980A1, US20140206727A1; cited from earlier work
[1] = 0.3 mg/L, 72 hours, read-out: mortality rates against armyworm
[2] = 0.1 mg/L, armyworm, 72 hours, parallel determination
[3] = 0.3 mg/L, armyworm, 72 hours, parallel determination, read-out: Mortality rate (%) 0.3 mg/L

O=C(Nc1cccc(C(=O)Nc2ccc(C(F)(C(F)(F)F)C(F)(F)F)cc2)c1F)c1ccc2c(c1)OC(F)(F)O2 [Compound C1]
Mortality rate (%) (adult spider mite; 10 mg/L): 0%
Mortality rate (%) (adult spider mite; 100 mg/L): 0%
Mortality rate (%) (adult spider mite; 600 mg/L): 0%

O=C(Nc1cccc(C(=O)Nc2c(Br)cccc2Br)c1F)c1ccc2c(c1)OC(F)(F)O2 [Compound C2]
Mortality rate (%) (adult spider mite; 10 mg/L): 0%
Mortality rate (%) (adult spider mite; 100 mg/L): 0%
Mortality rate (%) (adult spider mite; 600 mg/L): 0%

O=C(Nc1cccc(C(=O)Nc2c(Br)cc(C(F)(C(F)(F)F)C(F)(F)F)cc2C(F)(F)F)c1F)c1ccc2c(c1)OC(F)(F)O2 [Compound I-2]
mortality at 0.3 µg/mL (armyworm; [1]): > 90%
mortality at 1 µg/mL (diamondback moth): > 90%

O=C(Nc1cccc(C(=O)Nc2c(Br)cc(C(F)(C(F)(F)F)C(F)(F)F)cc2I)c1F)c1ccc2c(c1)OC(F)(F)O2 [Compound I-5, N-(2-bromo-6-iodo-4-perfluoroisopropylphenyl)-3-(2,2-difluoro-1,3-benzodioxole-5-carboxamido)-2-fluorobenzamide]
mortality at 0.3 µg/mL (armyworm; [1]): > 90%
mortality at 1 µg/mL (diamondback moth): > 90%

O=C(Nc1cccc(C(=O)Nc2c(Br)cc(C(F)(C(F)(F)F)C(F)(F)F)cc2Br)c1F)c1ccc2c(c1)OC(F)(F)O2 [Compound I-8]
mortality at 0.1 µg/mL (armyworm; [2]): 100%
mortality at 0.3 µg/mL (armyworm; [1]): > 90%
mortality at 0.3 µg/mL (armyworm; [3]): 100%
mortality at 1 µg/mL (diamondback moth): > 90%
Mortality rate (%) (beet armyworm; 0.2 mg/L): 83.3%
Mortality rate (%) (beet armyworm; 1 mg/L): 91.7%
mortality at 10 µg/mL (green peach aphid): > 80%
Mortality rate (%) (rice leaf folder; 30 g/ha): 83%
Mortality rate (%) (rice leaf folder; 45 g/ha): 85%
Mortality rate (%) (adult spider mite; 10 mg/L): 93.3%
Mortality rate (%) (adult spider mite; 100 mg/L): 100%
Mortality rate (%) (adult spider mite; 600 mg/L): 100%

CN(C(=O)c1ccc2c(c1)OC(F)(F)O2)c1cccc(C(=O)Nc2c(I)cc(C(F)(C(F)(F)F)C(F)(F)F)cc2I)c1F [Compound I-44]
mortality at 0.3 µg/mL (armyworm; [1]): > 90%
mortality at 1 µg/mL (diamondback moth): > 90%

CN(C(=O)c1ccc2c(c1)OC(F)(F)O2)c1cccc(C(=O)Nc2c(Br)cc(C(F)(C(F)(F)F)C(F)(F)F)cc2C(F)(F)F)c1F [Compound I-45, N-(2-bromo-4-heptafluoroisopropyl-6-trifluoromethylphenyl)-2-fluoro-3-(N-methyl-2,2-difluoro-1,3-benzodioxole-5-carboxamido) Benzamide]
mortality at 0.3 µg/mL (armyworm; [1]): > 90%
mortality at 1 µg/mL (diamondback moth): > 90%

CN(C(=O)c1ccc2c(c1)OC(F)(F)O2)c1cccc(C(=O)Nc2c(Br)cc(C(F)(C(F)(F)F)C(F)(F)F)cc2I)c1F [Compound I-48, N-(2-bromo-6-iodo-4-perfluoroisopropylphenyl)-2-fluoro-3-(N-methyl-2,2-difluoro-1,3-benzodioxole-5-carboxamido)benzamide]
mortality at 0.3 µg/mL (armyworm; [1]): > 90%
mortality at 1 µg/mL (diamondback moth): > 90%

CN(C(=O)c1ccc2c(c1)OC(F)(F)O2)c1cccc(C(=O)Nc2c(Br)cc(C(F)(C(F)(F)F)C(F)(F)F)cc2Br)c1F [Compound I-51, N-(2,6-dibromide-4-heptafluoroisopropylphenyl)-2-fluoro-3-(N-methyl-2,2-difluoro-1,3-benzodioxole-5-carboxamido)benzamide]
mortality at 0.1 µg/mL (armyworm; [2]): 85.7%
mortality at 0.3 µg/mL (armyworm; [1]): > 90%
mortality at 0.3 µg/mL (armyworm; [3]): 100%
mortality at 1 µg/mL (diamondback moth): > 90%
mortality at 10 µg/mL (green peach aphid): > 80%
Mortality rate (%) (housefly larva; 1 mg/L): 75%
Mortality rate (%) (housefly larva; 3 mg/L): 90.5%
Mortality rate (%) (housefly larva; 10 mg/L): 100%

Cc1cc(C(F)(C(F)(F)F)C(F)(F)F)cc(C)c1NC(=O)c1cccc(NC(=O)c2ccc3c(c2)OC(F)(F)O3)c1 [KC1]
mortality at 0.1 µg/mL (armyworm; 72 h): 0%
mortality at 0.3 µg/mL (armyworm; 72 h, read-out: Mortality rate (%) 0.3 mg/L): 0%
Mortality rate (%) (adult spider mite; 10 mg/L): 0%
Mortality rate (%) (adult spider mite; 100 mg/L): 0%
Mortality rate (%) (adult spider mite; 600 mg/L): 0%
mortality rates against Spodoptera litura (Spodoptera litura): ≥ 70%
mortality rates against Plutella xylostella (Plutella xylostella): ≥ 70%

CN(C(=O)c1ccccc1)c1cccc(C(=O)Nc2c(Br)cc(C(F)(C(F)(F)F)C(F)(F)F)cc2C(F)(F)F)c1F [KC2, Broflanilide, reference compound]
Mortality rate (%) (beet armyworm; 0.2 mg/L): 66.7%
Mortality rate (%) (beet armyworm; 1 mg/L): 83.3%
Mortality rate (%) (rice leaf folder; 30 g/ha): 79%
Mortality rate (%) (rice leaf folder; 45 g/ha): 82%
Mortality rate (%) (adult spider mite; 10 mg/L): 0%
Mortality rate (%) (adult spider mite; 100 mg/L): 0%
Mortality rate (%) (adult spider mite; 600 mg/L): 0%
Mortality rate (%) (housefly larva; 1 mg/L): 50%
Mortality rate (%) (housefly larva; 3 mg/L): 69.6%
Mortality rate (%) (housefly larva; 10 mg/L): 100%

O=C(Nc1cccc(C(=O)Nc2c(Br)cc(C(F)(C(F)(F)F)C(F)(F)F)cc2Br)c1F)c1ccccc1 [KC3]
mortality at 0.1 µg/mL (armyworm; [2]): 28.6%
mortality at 0.3 µg/mL (armyworm; [3]): 64.3%
Mortality rate (%) (adult spider mite; 10 mg/L): 0%
Mortality rate (%) (adult spider mite; 100 mg/L): 0%
Mortality rate (%) (adult spider mite; 600 mg/L): 0%
